Measurements: ChEMBL document CHEMBL3507680, “University of Dundee, Gates Library screen for HepG2 cell viability”

Experiment: Human HepG2 cell viability assay in 384 well format
Type: toxicity, cell-based
Design: dose 125 nL, time 70.5 hour; concentration not given beside the values
Settings: HepG2 cells, read-out: Inhibition

SMILES	cytotoxicity at 70.5 h
COc1ccc(OC2CCN(c3ccncc3)CC2)cc1	-3.12%
FC1(F)CCN(Cc2cccnc2)CC12CCN(c1cnccn1)C2 (stereo unspecified)	-12.8%
Cc1ccc(-c2noc(CN3CC(n4cc(C)cn4)C3)n2)cc1	-0.527%
CCc1cccc(NS(=O)(=O)c2cc(C)c(C(=O)O)s2)c1	0.535%
O=S(=O)(NC(CO)Cc1c[nH]c2ccccc12)c1cncc(F)c1 (stereo unspecified)	-4.62%
CS(=O)(=O)N1CCC2(CC1)CC(NCc1ccccn1)c1ccccc12 (stereo unspecified)	-9.6%
COc1ccccc1NCC(=O)Nc1cnn(Cc2ccccn2)c1	-3.02%
O=C(NCCCn1ccnc1)Nc1ccn(CCc2ccccn2)n1	-5.67%
COCCC(=O)N1CC[C@@H]2O[C@@H](C)C[C@H]2C1	-15.5%
CC(C)CC(=O)N1CC(=O)c2sc(NCCc3ccccc3)nc2C1	0.452%
Cn1cc(C(=O)Nc2ccc(CC(=O)NCC(F)(F)F)cc2)nn1	-6.55%
CC(C)(C)c1cc(=O)[nH]c(C2(N)CCCCC2)n1	-4.98%
CN(C)[C@@H]1CN(C(=O)Cc2ccc(F)cc2)[C@@H]2CCCO[C@H]12	18.3%
Cc1noc(C)c1CN1CCO[C@H]2CN(Cc3nccn3C)C[C@H]21	0.477%
O=C(c1cnccn1)N1CCc2ncnc(C3CCOC3)c2CC1 (stereo unspecified)	-9.35%
CCn1cnnc1C1CCCN(C(=O)COc2ccc(Cl)cc2)C1 (stereo unspecified)	-5.18%
O=C(NC1CC(=O)N(C2Cc3ccccc3C2)C1)c1cnccn1 (stereo unspecified)	-4.83%
O=C(C[C@@H]1COC[C@H]2CN(CC3CC3)C[C@@H]12)NCc1cccnc1	-11.6%
COCC(=O)N1CCCN(Cc2c(C)nc3ccc(Cl)cn23)CC1	2.35%

SMILES	cytotoxicity at 70.5 h
COCCN(CCOC)C(=O)c1c[nH]nc1-c1cccc(F)c1	0.751%
CN1CC(Oc2ccc(Cl)cc2)=NC(SCC(=O)c2ccccc2)=N1	14.8%
Cc1ccc(OCCNC(=O)C2CCOCC2)c(C)c1	35.7%
CC(C)c1nc(C2CCCN(C(=O)CCn3cncn3)C2)no1 (stereo unspecified)	-2.58%
Fc1cnc(N2CC3(CCN(CC4CC4)C3)C2)nc1	-0.963%
CC(C)(C)c1nnc(NCC(=O)N2CCc3sccc3C2)s1	-10.5%
C[C@@H]1CN(Cc2cc3ccccc3n2C)CC[C@]1(C)O	16.1%
CNC(=O)CN1CCC12CCN(C(=O)Cc1ccccc1)C2 (stereo unspecified)	-17.2%
Cc1csc(N2CCN(Cc3cccnc3)CC2C)n1 (stereo unspecified)	-19.6%
CCS(=O)(=O)N(C)C1CCN(Cn2ccc(-c3ccc(F)cc3)n2)CC1	-13.9%
CN(C)CCN1CCOCC2(C1)CN(Cc1ccco1)CCO2 (stereo unspecified)	-17.1%
COc1cc(C)nc(N2CCN(C(=O)COCC3CC3)CC2)n1	-3.61%
O=S(=O)(C1CC1)N1C[C@H](Oc2ccccn2)[C@H]2OCCC[C@H]21	-0.632%
Cc1cccc(C2(C(=O)NCC3CCN(CC(F)(F)F)C3)CCC2)c1 (stereo unspecified)	-1.39%
NCC1(c2cccc(C(F)(F)F)c2)CCCCC1	-4.79%
CCOc1ccc(CNC(C)c2c(C)nn(C)c2C)cc1 (stereo unspecified)	20.4%
CCOC(=O)[C@H]1[C@@H](O)C(=O)N(C)C12CCN(C(=O)C(CC)CC)CC2	-3.26%
c1csc(-c2noc(COCC3CCCO3)n2)c1 (stereo unspecified)	1.87%
COCCn1cc(NC(=O)NCC(C)N2CCOCC2)cn1 (stereo unspecified)	-13.2%

SMILES	cytotoxicity at 70.5 h
O=C(COc1coc(CN2CCCC2)cc1=O)Nc1cc(Cl)ccc1Cl	-7.96%
O=C(CN1CCc2cncnc2C1)NC(c1ccccc1)C1CC1 (stereo unspecified)	-2.84%
NC(=O)CN1C(=O)CO[C@H]2CN(Cc3ccc(Cl)cc3)C[C@H]21	13%
CN(C)C(=O)N1Cc2nnn(C)c2C(COCc2cccnc2)C1 (stereo unspecified)	-2.6%
O=C(c1ccc2nccn2c1)N1CCCC1c1noc(C2CC2)n1 (stereo unspecified)	-5.7%
CCCOc1cc(CNC(=O)Nc2cccc(C(C)=O)c2)ccn1	-0.91%
CNS(=O)(=O)c1cccc(CNc2nccc(C(F)(F)F)n2)c1	53.4%
COc1ccc(S(=O)(=O)N2CCC(S(C)(=O)=O)CC2)cc1C	5.77%
CN(CCO)Cc1nnc(C2CCN(C(=O)c3cccn3C)CC2)n1C	-5.93%
Cc1nn(C)c2nc(NCCCN3CCCC(CO)C3)sc12 (stereo unspecified)	-9.15%
CCc1n[nH]c(C2CN(Cc3nnc(C4CCC4)o3)CCO2)n1 (stereo unspecified)	-7.61%
CCc1nnc2sc(-c3cc(C(C)C)n[nH]3)nn12	-1.02%
O=C([C@H]1C[C@H]2OCC[C@H]2N(C(=O)c2ccnnc2)C1)N1CCCCO1	1.65%
Cc1cc(CN2C[C@@H]3COC[C@]3(CNS(C)(=O)=O)C2)no1	1.21%
Cc1ccc(CNCc2cc(Br)c3c(c2)OCO3)cc1	-5.25%
CN(C)C(=O)CN(C)C(=O)c1cnc(Cc2ccc(F)cc2)s1	-0.843%
O=C(NCc1cccs1)c1nc2c(o1)CN(CC1CC1)C2	-9.19%
Fc1cnc(N2CCC3(CCCN(c4nncs4)C3)C2)nc1 (stereo unspecified)	-6.18%
